pIC50, pKi: −log10 of the molar value.
How the values were obtained:
[1] = target: T1, recombinant human Norepinephrine (NE) transporter (Homo sapiens, UniProt P23975); assay: Functional uptake of NE into cells expressing recombinant human transporters; format: cell-based; conditions: read-out: IC50 inhibition of functional uptake in human transporters, Norepinephrine (NE)
T1 construct: expressed in transfected cells

[2] = target: T2, recombinant human Dopamine (DA) transporter (Homo sapiens, UniProt Q01959); assay: Functional uptake of DA into cells expressing recombinant human transporters; format: cell-based; conditions: read-out: IC50 inhibition of functional uptake in human transporters, Dopamine (DA)
T2 construct: expressed in transfected cells
T2 sequence (Q01959 whole entry): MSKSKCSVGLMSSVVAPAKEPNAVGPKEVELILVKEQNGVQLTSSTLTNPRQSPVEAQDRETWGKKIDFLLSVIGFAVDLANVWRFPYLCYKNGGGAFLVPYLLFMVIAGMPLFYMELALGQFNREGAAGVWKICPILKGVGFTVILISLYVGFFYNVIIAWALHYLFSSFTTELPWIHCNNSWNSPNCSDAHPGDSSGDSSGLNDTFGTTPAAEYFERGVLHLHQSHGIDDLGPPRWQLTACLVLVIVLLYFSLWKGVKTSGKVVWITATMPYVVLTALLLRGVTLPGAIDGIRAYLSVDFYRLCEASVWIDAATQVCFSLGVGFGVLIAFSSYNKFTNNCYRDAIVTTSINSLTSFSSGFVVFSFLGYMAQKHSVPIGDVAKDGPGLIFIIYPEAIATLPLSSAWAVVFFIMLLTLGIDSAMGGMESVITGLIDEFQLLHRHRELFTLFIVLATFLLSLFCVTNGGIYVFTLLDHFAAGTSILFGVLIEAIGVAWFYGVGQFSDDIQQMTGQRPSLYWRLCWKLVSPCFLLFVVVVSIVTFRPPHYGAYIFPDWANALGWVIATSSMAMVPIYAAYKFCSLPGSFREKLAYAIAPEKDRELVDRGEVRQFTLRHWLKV

Long-Evans derived rats [3] = assay: Spontaneous locomotor activity study; format: in vivo, rat; conditions: mean ± SEM
Description: The effects on locomotor activity were studied in Long-Evans derived rats following protocol outlined in Dews P., Br. J. Pharmacol., 8: 46 (1953).
This effect was still evident 2 hours following drug administration. On the basis of these studies, CNS effects and long duration of action may be anticipated at sufficient clinical doses.

[4] = target: Ca^2+ Channel Verapamil Site; assay: In vitro radioligand binding assay, Ca2+ channel verapamil site
Long-Evans derived rats [5] = assay: Porsolt forced swim test; format: in vivo, rat; conditions: for Mean Immobility Time (% of Total) ± SEM, Day 2 Study: 3 administrations; for Mean Immobility Time (% of Total) ± SEM, Day 4 Study: 7 administrations
Description: Performance in the Porsolt forced swim test was evaluated for sertraline and Compound P following protocols outlined in Porsolt R. D., et al., Arch. Int. Pharmacodyn., 229: 327 ([…]).
The Porsolt forced swim test is a model of “behavioral despair”, which has been used as an in vivo model for assessing potential antidepressant-like activity. Both test articles were dissolved in physiological saline (vehicle) and administered intraperitoneally. […] Long-Evans derived rats were used.

Dopamine (DA) uptake = Dopamine (DA) uptake (Rattus norvegicus, UniProt P23977); assay: biochemical
Chain of Dopamine (DA) uptake (P23977 whole entry): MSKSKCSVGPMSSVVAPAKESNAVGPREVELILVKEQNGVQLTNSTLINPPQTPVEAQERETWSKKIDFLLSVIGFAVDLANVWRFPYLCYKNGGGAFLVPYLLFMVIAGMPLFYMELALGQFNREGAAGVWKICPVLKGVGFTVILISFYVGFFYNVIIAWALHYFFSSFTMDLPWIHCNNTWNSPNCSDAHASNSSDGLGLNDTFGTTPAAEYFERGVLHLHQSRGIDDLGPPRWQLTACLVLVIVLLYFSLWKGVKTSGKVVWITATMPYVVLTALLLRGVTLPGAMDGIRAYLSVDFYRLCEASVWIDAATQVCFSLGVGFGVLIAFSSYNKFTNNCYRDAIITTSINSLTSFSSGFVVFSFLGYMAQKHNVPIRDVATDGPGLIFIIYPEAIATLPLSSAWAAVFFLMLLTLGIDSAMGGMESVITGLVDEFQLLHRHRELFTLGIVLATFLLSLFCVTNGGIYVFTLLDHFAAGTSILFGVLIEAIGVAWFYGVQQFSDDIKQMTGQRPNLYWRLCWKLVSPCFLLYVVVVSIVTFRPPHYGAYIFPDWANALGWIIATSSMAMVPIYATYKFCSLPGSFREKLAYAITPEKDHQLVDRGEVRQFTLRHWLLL

5-HT2C = 5-HT2C (Homo sapiens, UniProt P28335); assay: In vitro radioligand binding assay, 5-HT2C
Chain of 5-HT2C (P28335 33-458, species assumed): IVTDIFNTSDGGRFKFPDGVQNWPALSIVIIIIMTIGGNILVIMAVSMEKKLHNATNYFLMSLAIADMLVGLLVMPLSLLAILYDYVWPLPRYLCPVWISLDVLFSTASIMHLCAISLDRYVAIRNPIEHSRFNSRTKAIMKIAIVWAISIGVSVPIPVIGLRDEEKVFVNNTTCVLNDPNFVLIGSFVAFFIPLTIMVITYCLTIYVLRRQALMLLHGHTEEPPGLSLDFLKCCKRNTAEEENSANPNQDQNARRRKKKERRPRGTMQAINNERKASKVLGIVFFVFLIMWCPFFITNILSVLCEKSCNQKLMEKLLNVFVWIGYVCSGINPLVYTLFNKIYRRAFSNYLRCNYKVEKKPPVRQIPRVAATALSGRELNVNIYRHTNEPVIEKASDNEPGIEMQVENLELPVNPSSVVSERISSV

rats [6] = assay: Formalin test, second test with Automated Nociception Analyzer; format: in vivo, rat; conditions: automated detection; for Number of Flinches, Acute Phase (Mean ± SEM): 0-10 minutes after formalin; for Number of Flinches, Late Phase (Mean ± SEM): 10-60 minutes after formalin
Description: In a second test, flinching behaviors were measured for 90 minutes after formalin injection using an automated detection system. […] This device used a magnetic detection system to measure paw movements, called “flinches”. Small metal bands were attached to the left hind paw of rats just before placement into individual circular test chambers 30 minutes prior to formalin injection. […] In addition to duloxetine, morphine (6 mg/kg, subcutaneously) was used as a comparator substance. Animals were treated with morphine 30 minutes prior to the formalin injection. To initiate the experiment, the rats were injected with formalin subcutaneously on the dorsal surface of the left hind paw and placed in the test chambers. The instrument subsequently recorded rapid foot movements counted in one minute epochs.

rats [7] = assay: Formalin paw test in the rat (late phase), flinches counted; format: in vivo
Description: Rats were given an intraplantar injection of 5% formalin (50 μl) into the posterior left paw. […] The number of flinches was counted for 15 minutes, beginning 20 minutes after injection of formalin. Eight rats were studied per group. The test was performed blind. […] Data were analyzed by comparing treated groups with vehicle control using unpaired Mann-Whitney U tests.

Rat SNL Model = assay: SNL model of neuropathic pain, mechanical hyperalgesia testing; format: in vivo
Description: The animals were anesthetized with isoflurane, the left L5 transverse process was removed, and the L5 and L6 spinal nerves were tightly ligated with 6-0 silk suture. The wound was then closed with internal sutures and external staples. Wound clips were removed 10-11 days following surgery.
Mechanical hyperalgesia testing: Baseline, post-injury and post-treatment values for […] mechanical sensitivity were evaluated using a Paw Pressure Analgesymeter (7200, Ugo Basile, Comerio, Italy) which generates a linearly increasing mechanical force. The mechanical nociceptive stimulus was applied to the plantar surface of the hind paws by a dome-shaped plastic tip placed between the 3rd and 4th metatarsus. […] Mechanical thresholds were defined as the force in grams at the first pain behavior, which includes paw withdrawal, struggle and/or vocalization. Paw pressure test was performed on each hind paw for each animal. The mean and standard error of the mean (SEM) were determined for each paw, in each treatment group. Mechanical hyperalgesia was evaluated 24 days post-surgery.
Ten rats were studied per group and the tests were performed blind. (1R,4S)-4-(3,4-dichlorophenyl)-1,2,3,4-tetrahydro-1-naphthalenamine (P) was evaluated at 3 doses (5, 10 and 15 mg/kg), administered orally and compared with a vehicle control group. Gabapentin (100 mg/kg) and duloxetine (30 mg/kg) administered orally under the same experimental conditions, were used as comparator substances. Mechanical allodynia and hyperalgesia testing were conducted at baseline and 1, 2 and 4 hours after test article administration.

D1 = D1 (Homo sapiens, UniProt P21728); assay: In vitro radioligand binding assay, D1
Chain of D1 (P21728 whole entry): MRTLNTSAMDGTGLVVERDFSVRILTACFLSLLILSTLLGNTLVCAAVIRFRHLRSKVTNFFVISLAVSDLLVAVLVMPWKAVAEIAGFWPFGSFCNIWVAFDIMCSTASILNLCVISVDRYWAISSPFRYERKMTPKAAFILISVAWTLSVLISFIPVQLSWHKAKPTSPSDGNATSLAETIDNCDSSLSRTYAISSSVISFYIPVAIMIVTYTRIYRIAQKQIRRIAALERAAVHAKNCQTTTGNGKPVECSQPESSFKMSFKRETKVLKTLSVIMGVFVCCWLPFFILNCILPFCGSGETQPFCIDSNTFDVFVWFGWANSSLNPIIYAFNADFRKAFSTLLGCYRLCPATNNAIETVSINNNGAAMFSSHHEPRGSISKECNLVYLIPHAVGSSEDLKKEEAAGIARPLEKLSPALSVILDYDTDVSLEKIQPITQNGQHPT

[8] = target: T3, Norepinephrine (NE) uptake (Rattus norvegicus, UniProt Q63380); assay: Functional uptake of radiolabeled NE into synaptosomes from rat hypothalamus; format: biochemical
T3 construct: from tissue; host or cells: synaptosomes from rat hypothalamus
T3 sequence (Q63380 1-617): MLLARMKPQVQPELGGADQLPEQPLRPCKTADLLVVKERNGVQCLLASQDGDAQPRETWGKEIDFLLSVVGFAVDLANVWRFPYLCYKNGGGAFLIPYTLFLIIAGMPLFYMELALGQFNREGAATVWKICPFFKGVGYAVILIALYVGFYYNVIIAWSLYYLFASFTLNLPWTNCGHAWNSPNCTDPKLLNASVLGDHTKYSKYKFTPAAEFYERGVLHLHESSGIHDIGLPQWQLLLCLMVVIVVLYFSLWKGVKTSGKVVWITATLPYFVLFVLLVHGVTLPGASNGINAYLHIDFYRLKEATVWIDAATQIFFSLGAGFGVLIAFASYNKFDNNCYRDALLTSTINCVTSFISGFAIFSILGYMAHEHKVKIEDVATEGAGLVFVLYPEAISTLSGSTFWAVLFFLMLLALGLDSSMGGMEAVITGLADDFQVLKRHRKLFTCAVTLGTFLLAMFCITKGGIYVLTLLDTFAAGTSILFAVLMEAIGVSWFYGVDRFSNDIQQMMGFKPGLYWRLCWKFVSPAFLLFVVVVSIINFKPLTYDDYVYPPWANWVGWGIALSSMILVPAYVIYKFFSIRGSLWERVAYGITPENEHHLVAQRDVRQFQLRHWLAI
Description: The 5-HT and NE assays were performed essentially as outlined in Perovic S. & Müller W. E. G., Arzneim.-Forsch.

B2 = B2 (Homo sapiens, UniProt P30411); assay: In vitro radioligand binding assay, B2
Chain of B2 (P30411 whole entry): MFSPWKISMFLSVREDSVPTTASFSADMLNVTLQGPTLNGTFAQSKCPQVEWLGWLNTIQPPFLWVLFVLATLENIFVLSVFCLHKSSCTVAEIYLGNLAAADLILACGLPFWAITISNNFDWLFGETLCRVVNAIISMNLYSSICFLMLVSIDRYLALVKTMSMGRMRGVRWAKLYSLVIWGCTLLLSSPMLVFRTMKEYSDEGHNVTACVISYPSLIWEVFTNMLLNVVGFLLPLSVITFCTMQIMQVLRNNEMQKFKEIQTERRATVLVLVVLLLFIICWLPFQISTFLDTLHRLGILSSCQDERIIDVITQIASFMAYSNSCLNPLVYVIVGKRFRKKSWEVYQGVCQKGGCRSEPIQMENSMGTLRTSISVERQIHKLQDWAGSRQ

[9] = 5 mg/kg p.o. 60 min before the test
[10] = 10 mg/kg p.o. 60 min before the test
[11] = 15 mg/kg p.o. 60 min before the test

T1 sequence (P23975 whole entry): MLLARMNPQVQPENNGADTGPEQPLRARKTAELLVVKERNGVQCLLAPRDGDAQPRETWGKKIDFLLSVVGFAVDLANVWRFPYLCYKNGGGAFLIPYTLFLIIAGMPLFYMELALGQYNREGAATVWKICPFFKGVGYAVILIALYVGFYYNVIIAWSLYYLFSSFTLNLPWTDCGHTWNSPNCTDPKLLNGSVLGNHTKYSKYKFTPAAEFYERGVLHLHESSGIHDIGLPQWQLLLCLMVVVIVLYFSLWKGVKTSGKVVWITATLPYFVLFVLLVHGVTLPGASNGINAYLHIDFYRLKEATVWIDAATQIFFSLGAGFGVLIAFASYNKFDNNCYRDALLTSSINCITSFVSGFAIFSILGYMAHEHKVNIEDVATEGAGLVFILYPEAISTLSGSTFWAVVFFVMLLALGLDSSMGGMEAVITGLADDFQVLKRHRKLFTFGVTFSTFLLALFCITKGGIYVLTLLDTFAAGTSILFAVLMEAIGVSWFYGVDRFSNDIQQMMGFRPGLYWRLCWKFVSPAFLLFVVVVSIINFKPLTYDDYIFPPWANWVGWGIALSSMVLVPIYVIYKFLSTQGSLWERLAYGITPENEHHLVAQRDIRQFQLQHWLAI

For `N[C@@H]1CC[C@@H](c2ccc(Cl)c(Cl)c2)c2ccccc21` [Compound P, (1R,4S)-trans 4-(3,4-dichlorophenyl)-1,2,3,4-tetrahydro-1-napthalenamine], the pIC50 [1] was 7.81, the pIC50 [2] was 7.89 and the “Total Activity Counts, 71–80 Minutes” value (Long-Evans derived rats [3]; 2.5 mg/kg single i.p. dose) was 49 ± 6. The “Total Activity Counts, 91–100 Minutes” value (Long-Evans derived rats [3]; 2.5 mg/kg single i.p. dose) was 54 ± 9, the “Total Activity Counts, 111–120 Minutes” value (Long-Evans derived rats [3]; 2.5 mg/kg single i.p. dose) was 34 ± 9 and the “Total Activity Counts, Total 1st Hour” value (Long-Evans derived rats [3]; 2.5 mg/kg single i.p. dose) was 577 ± 54^1. For the same molecule, the “Total Activity Counts, Total 2nd Hour” value (Long-Evans derived rats [3]; 2.5 mg/kg single i.p. dose) was 257 ± 36, the “Total Activity Counts, 71–80 Minutes” value (Long-Evans derived rats [3]; 5.0 mg/kg single i.p. dose) was 38 ± 3 and the “Total Activity Counts, 91–100 Minutes” value (Long-Evans derived rats [3]; 5.0 mg/kg single i.p. dose) was 26 ± 26. For the same molecule, the “Total Activity Counts, 111–120 Minutes” value (Long-Evans derived rats [3]; 5.0 mg/kg single i.p. dose) was 23 ± 14, the “Total Activity Counts, Total 1st Hour” value (Long-Evans derived rats [3]; 5.0 mg/kg single i.p. dose) was 444 ± 91 and the “Total Activity Counts, Total 2nd Hour” value (Long-Evans derived rats [3]; 5.0 mg/kg single i.p. dose) was 160 ± 32. For the same molecule, the pKi [4] was 6.00, the “Mean Immobility Time (% of Total) ± SEM, Day 2 Study” value (Long-Evans derived rats [5]; 1.25 mg/kg i.p.) was 77 ± 3 % of Total and the “Mean Immobility Time (% of Total) ± SEM, Day 4 Study” value (Long-Evans derived rats [5]; 1.25 mg/kg i.p.) was 69 ± 4 % of Total. For the same molecule, the “Mean Immobility Time (% of Total) ± SEM, Day 2 Study” value (Long-Evans derived rats [5]; 2.5 mg/kg i.p.) was 48 ± 6 % of Total, the “Mean Immobility Time (% of Total) ± SEM, Day 4 Study” value (Long-Evans derived rats [5]; 2.5 mg/kg i.p.) was 46 ± 8 % of Total and the “Mean Immobility Time (% of Total) ± SEM, Day 2 Study” value (Long-Evans derived rats [5]; 5.0 mg/kg i.p.) was 49 ± 5 % of Total. The “Mean Immobility Time (% of Total) ± SEM, Day 4 Study” value (Long-Evans derived rats [5]; 5.0 mg/kg i.p.) was 19 ± 6 % of Total, the pIC50 (Dopamine (DA) uptake) was 8.19 and the pKi (5-HT2C) was 5.29. The “Number of Flinches, Acute Phase (Mean ± SEM)” value (rats [6]; 5 mg/kg PO) was 194 ± 33, the “Number of Flinches, Late Phase (Mean ± SEM)” value (rats [6]; 5 mg/kg PO) was 1263 ± 181 and the “Number of Flinches, Acute Phase (Mean ± SEM)” value (rats [6]; 10 mg/kg PO) was 143 ± 27. The “Number of Flinches, Late Phase (Mean ± SEM)” value (rats [6]; 10 mg/kg PO) was 1679 ± 163, the “Number of Flinches, Acute Phase (Mean ± SEM)” value (rats [6]; 15 mg/kg PO) was 212 ± 40 and the “Number of Flinches, Late Phase (Mean ± SEM)” value (rats [6]; 15 mg/kg PO) was 2236 ± 153. For the same molecule, the “NUMBER OF FLINCHES (20 to 35 min after formalin), mean ± s.e.m.” value (from here on “NUMBER OF FLINCHES … mean ± s.e.m.”) (rats [7]; [9]) was 89.0 ± 18.4NS, the “NUMBER OF FLINCHES, % change from control” value (“NUMBER OF FLINCHES, % change” for short) (rats [7]; [9]) was 0% and the “NUMBER OF FLINCHES … mean ± s.e.m.” value (rats [7]; [10]) was 76.4 ± 15.2NS. The “NUMBER OF FLINCHES, % change” value (rats [7]; [10]) was −15%, the “NUMBER OF FLINCHES … mean ± s.e.m.” value (rats [7]; [11]) was 44.6 ± 13.6 and the “NUMBER OF FLINCHES, % change” value (rats [7]; [11]) was −50%. The “Mechanical Hyperalgesia, Paw Pressure Threshold (Mean ± SEM)” value (shortened to “Mechanical Hyperalgesia … (Mean ± SEM)”) (Rat SNL Model; 5 mg/kg PO, 0 h (Baseline)) was 147 ± 17 g, the “Mechanical Hyperalgesia … (Mean ± SEM)” value (Rat SNL Model; 5 mg/kg PO, 1 h) was 183 ± 35 g and the “Mechanical Hyperalgesia … (Mean ± SEM)” value (Rat SNL Model; 5 mg/kg PO, 2 h) was 240 ± 32 g. For the same molecule, the “Mechanical Hyperalgesia … (Mean ± SEM)” value (Rat SNL Model; 5 mg/kg PO, 4 h) was 257 ± 37 g, the “Mechanical Hyperalgesia … (Mean ± SEM)” value (Rat SNL Model; 10 mg/kg PO, 0 h (Baseline)) was 152 ± 18 g and the “Mechanical Hyperalgesia … (Mean ± SEM)” value (Rat SNL Model; 10 mg/kg PO, 1 h) was 213 ± 32 g. The “Mechanical Hyperalgesia … (Mean ± SEM)” value (Rat SNL Model; 10 mg/kg PO, 2 h) was 309 ± 27 g, the “Mechanical Hyperalgesia … (Mean ± SEM)” value (Rat SNL Model; 10 mg/kg PO, 4 h) was 282 ± 30 g and the “Mechanical Hyperalgesia … (Mean ± SEM)” value (Rat SNL Model; 15 mg/kg PO, 0 h (Baseline)) was 164 ± 22 g. The “Mechanical Hyperalgesia … (Mean ± SEM)” value (Rat SNL Model; 15 mg/kg PO, 1 h) was 281 ± 37 g, the “Mechanical Hyperalgesia … (Mean ± SEM)” value (Rat SNL Model; 15 mg/kg PO, 2 h) was 251 ± 37 g and the “Mechanical Hyperalgesia … (Mean ± SEM)” value (Rat SNL Model; 15 mg/kg PO, 4 h) was 269 ± 37 g. For the same molecule, the pKi (D1) was 5.17, the pIC50 [8] was 8.02 and the pKi (B2) was 5.82.

— US20070282007A1, “TREATMENT OF PAIN DISORDERS WITH trans 4-(3,4-DICHLOROPHENYL)-1,2,3,4-TETRAHYDRO-1-NAPHTHALENAMINE AND ITS FORMAMIDE” (SEPRACOR INC., priority 2006, published 2007)
